Where “and” joins values, the source holds several entries; their conditions need not be identical. Identical values can stand only once.
Tests used:
[1] = tested on: PC3 PD-L1-overexpressing tumor; assay: Small-animal PET, uptake in PD-L1-overexpressing tumor; conditions: for SUVmax PC3 PD-L1 overexpressing tumor: tracer only; for SUVmax PC3 PD-L1 overexpressing tumor +block: blocker i.v. before tracer: Cu-1 100 nmol 1, Cu-2 100 nmol 2, Cu-3 1000 nmol 4, Cu-4 500 nmol 4, Cu-6 250 nmol 1 (~5 min prior), Cu-5 100 nmol 5 (~30 min prior); for blocking effect of BMS-1166 on SUVmax / tumor uptake: any time point, Cu-3: 750 nmol BMS-1166 intraperitoneally 60 min prior, Cu-6: 250 nmol BMS-1166 5 min before
Procedure: Changes are reported as % change of the SUVmax of the PD-L1 expressing over the respective value of the mock tumor. Similarly, the effect of blocking is reported as % change of the SUVmax of the animal injected with cold compound over that of the animal that received tracer only.
Animal experiments were performed in accordance with the guidelines of the German Regulations for Animal Welfare, approved by the Saxonian Ethical Committee for Animal Experiments (reference number DD24.1-5131/449/49). Male athymic NMRI-nude mice (Rj: NMRI-Foxn1^nu/nu, Janvier Laboratories, Le Genest-Saint-Isle, France) between 8 and 22 weeks of age were used. Under general anesthesia, [∼10% desflurane (Baxter, Deerfield, IL, USA) in 30 vol % oxygen + air] and warming, the animals were subcutaneously injected with 3–5 × 10^6 PC3-PD-L1 and PC3-mock cells [in 50 μL PBS +50 μL Matrigel (Corning, Glendale, USA)] into the right and left thigh, respectively. Tumor growth was monitored three times a week by caliper measurements, and mice with tumor sizes above 7 mm were included in the experiments.
For PET studies, general anesthesia was induced as described above. PET and X-ray computed tomography (CT) were performed in a dedicated small animal nanoScan PET/CT scanner, with four animals imaged simultaneously (Mediso, Budapest, Hungary). CT images were employed for attenuation correction and anatomical referencing. Animals received three individual scans corresponding to 0–2 h (dynamic) and 4.5 and 24 h (static) postinjection.
PD-L1 radiotracer candidates (in 300 μL sterile 0.9% NaCl/HEPES buffer, pH 6–7, between 7 and 12 MBq, molar activities > 12 GBq/μmol) were delivered over 30 s i.v. (lateral tail vein) and PET acquisition started simultaneously. For blocking condition, a defined quantity of compound (the same unlabeled compound, one from the same series or BMS-1166) was diluted in sterile saline and injected i.v. approximately 5 min prior to the radiotracer. Animals not subjected to blocking were injected with vehicle at the same time.
Three-dimensional list mode data were binned using the 400–600 keV energy window and sorted into 36 time frames (15 × 10 s, 5 × 30 s, 5 × 60 s, 4 × 300 s, 3 × 600 s, 4 × 900 s). Time frames were reconstructed using the Tera-TomoTM 3D algorithm applying a voxel size of 0.4 mm and corrections for decay, scatter, and attenuation.
Three-dimensional volumes of interest were delineated applying fixed thresholding at 35% of the measured maximum intensity. Standardized uptake values (SUV = [MBq detected activity/mL tissue]/[MBq injected activity/g body weight], […]) were determined in selected volumes of interest, among these PD-L1 and mock tumors.
14. In vivo: PET- SUV data
Standardized uptake values (SUVmax)
Supplementary table 1: In vivo standardized uptake values (SUVmax ± standard deviation) of 64Cu-labeled third series compounds [64Cu]Cu-1-6 at 1.5 (1–2), 4.5 (4–5) and 24.5 (24–25) hours
post injection (p.i.). Compounds used for blocking are described for each tracer and were intravenously injected in sterile saline at stated time before the radiotracer. Animals designated for
tracer-only received matched type and volume of vehicle at the same time.

[2] = Proteolytic stability in human serum, radio-HPLC; type: in vitro ADME; conditions: 37 °C
Procedure: Potential degradation of the ^64Cu-labeled radiotracers by proteolysis was investigated by incubation in human serum at 37 °C for up to 48 h. At three different time points (1, 24, and 48 h), a sample was withdrawn, and serum proteins were precipitated. The radio-HPLC chromatograms of all ^64Cu-labeled radiotracers (Figure S111A–D, system D) show a major peak at ∼6.4–6.7 min indicating the radiotracers. After 1 h, the radiotracers [^64Cu]Cu-3–6 are 94.1, 98.3, 94.0, and 96.3% intact, respectively.
Similar to PBS stability studies, the mixture containing the radiolabeled compound was diluted 1:10 with human serum. The solution was incubated at 37 °C with shaking at 300 rpm. At each time point (1, 24, and 48 h), an aliquot was withdrawn and added to a double amount of “supersol” (water containing 20% v/v EtOH, 5% v/v 5 mM aqueous EDTA, 0.5% v/v Triton X-100, 0.1% m/v saponin, 0.05% v/v 0.5 mM aqueous o-phenanthroline) to precipitate serum proteins. The suspension was cooled on ice for 5 min and then centrifugated for 5 min at 12,000g. A small amount of the supernatant was analyzed by radio-HPLC (PerkinElmer, Massachusetts, United States system D, Supporting Information). Evaluation and graphical plotting were performed with OriginPro 9.0.

[3] = 1–2 h (1.5 h) p.i., blocker: Cu-3 1000 nmol 4, Cu-4 500/1000 nmol 4, Cu-5 100 nmol 5, Cu-6 250 nmol BMS-1166
[4] = 4–5 h (4.5 h) p.i., blocker: Cu-3 1000 nmol 4, Cu-4 500/1000 nmol 4, Cu-5 100 nmol 5, Cu-6 250 nmol BMS-1166
[5] = 24–25 h (24.5 h) p.i., blocker: Cu-1, Cu-2 100 nmol unlabeled compound, Cu-3 1000 nmol 4, Cu-4 500/1000 nmol 4, Cu-5 100 nmol 5, Cu-6 250 nmol BMS-1166

Compound | SUVmax PC3 PD-L1 overexpressing tumor ([1]; 1.5 (1–2) hours p.i.) | SUVmax PC3 PD-L1 overexpressing tumor +block ([1]; 1.5 (1–2) hours p.i.) | SUVmax PC3 PD-L1 overexpressing tumor ([1]; 4.5 (4–5) hours p.i.) | SUVmax PC3 PD-L1 overexpressing tumor +block ([1]; 4.5 (4–5) hours p.i.) | SUVmax PC3 PD-L1 overexpressing tumor ([1]; 24.5 (24–25) hours p.i.) | SUVmax PC3 PD-L1 overexpressing tumor +block ([1]; 24.5 (24–25) hours p.i.) | blocking effect: % change of SUVmax in PD-L1 tumor vs tracer-only [1, 3] | % change of SUVmax of the PD-L1 expressing tumor over the mock tumor ([1]; 1–2 h p.i.) | blocking effect: % change of SUVmax in PD-L1 tumor vs tracer-only [1, 4] | blocking effect of BMS-1166 on SUVmax / tumor uptake [1] | intact radiotracer in human serum after 1 h [2] | % change of SUVmax of the PD-L1 expressing tumor over the mock tumor ([1]; 4–5 h p.i.) | blocking effect: % change of SUVmax in PD-L1 tumor vs tracer-only [1, 5] | % change of SUVmax of the PD-L1 expressing tumor over the mock tumor ([1]; 24–25 h p.i.) | other results
Cc1c(COc2cc(OCc3cncc(C#N)c3)c(CN[C@@H](CS(=O)(=O)O)C(=O)NCCS(=O)(=O)O)cc2Cl)cccc1-c1cccc(OCc2cn(CCCN3CCN(C(=O)[C@H](CS(=O)(=O)O)NC(=O)CC[C@H](C(=O)O)N4CCN(CC(=O)O)CCN(CC(=O)O)CC4)CC3)nn2)c1C.[64Cu+2] [[^64Cu]Cu-1] | 1–1.5 | 1.3 | 1.1 | 1.0 | 1.4 | 1.1 |  |  |  |  |  |  |  |  | SUVmax PC3 PD-L1 overexpressing tumor ([1]; 1.5 (1–2) hours p.i., listed as [64Cu]Cu-1): 1.5
Cc1c(COc2cc(OCc3cncc(S(C)(=O)=O)c3)c(CN[C@@H](CS(=O)(=O)O)C(=O)NCCP(=O)(O)O)cc2Cl)cccc1-c1cccc(OCc2cn(CCCN3CCN(C(=O)[C@H](CP(=O)(O)O)NC(=O)CC[C@H](C(=O)O)N4CCN(CC(=O)O)CCN(CC(=O)O)CC4)CC3)nn2)c1C.[64Cu+2] [[^64Cu]Cu-6] | 1.83 ± 0.37 | 2.28 ± 0.46 | 1.55 ± 0.05 | 1.8 ± 0.3 | 2.2 ± 0.1 | 2.3 ± 0.4 | +25% | 121% | +16% | no blocking effect | 96.3% |  |  |  | intact radiotracer in human serum at 48 h ([2]; 48 h): 93.4%
Cc1c(COc2cc(OCc3cncc(S(C)(=O)=O)c3)c(CN[C@@H](CS(=O)(=O)O)C(=O)NCCP(=O)(O)O)cc2Cl)cccc1-c1cccc(OCc2cn(CCCN3CCN(C(=O)CC[C@H](C(=O)O)N4CCN(CC(=O)O)CCN(CC(=O)O)CC4)CC3)nn2)c1C.[64Cu+2] [[^64Cu]Cu-4] | 1.97 ± 0.23 | 0.85 ± 0.05 | 1.2 ± 0.4 | 1.05 ± 0.35 | 2.0 ± 0.1 | 1.1 ± 0.1 | −57% | 146% | −13% and −12% |  | 98.3% | 166% | −45% | 60% | 
Cc1c(COc2cc(OCc3cncc(S(C)(=O)=O)c3)c(CN[C@@H](CS(=O)(=O)O)C(=O)NCCP(=O)(O)O)cc2Cl)cccc1-c1cccc(OCc2cn(CCCN3CCN(C(=O)[C@H](CS(=O)(=O)O)NC(=O)CC[C@H](C(=O)O)N4CCN(CC(=O)O)CCN(CC(=O)O)CC4)CC3)nn2)c1C.[64Cu+2] [[^64Cu]Cu-5] | 3.25 | 1.75 ± 0.35 | 1.75 | 1.65 ± 0.15 | 1.2 | 1.55 ± 0.05 | −46% | 306% | −6% and −5% |  | 94.0% | +59% | +29% | +14% | SUVmax PC3 PD-L1 overexpressing tumor ([1]; 1.5 (1–2) hours p.i., listed as [64Cu]Cu-5): 3.25 ± 0.25; SUVmax PC3 PD-L1 overexpressing tumor ([1]; 4.5 (4–5) hours p.i., listed as [64Cu]Cu-5): 1.75 ± 0.15; SUVmax PC3 PD-L1 overexpressing tumor ([1]; 24.5 (24–25) hours p.i., listed as [64Cu]Cu-5): 1.2 ± 0.8
Cc1c(COc2cc(OCc3cncc(S(C)(=O)=O)c3)c(CN[C@@H](CS(=O)(=O)O)C(=O)NCCS(=O)(=O)O)cc2Cl)cccc1-c1cccc(OCc2cn(CCCN3CCN(C(=O)[C@H](CS(=O)(=O)O)NC(=O)CC[C@H](C(=O)O)N4CCN(CC(=O)O)CCN(CC(=O)O)CC4)CC3)nn2)c1C.[64Cu+2] [[^64Cu]Cu-3] | 3.5 | 1.0 ± 0.1 | 2.6 ± 0.1 | 0.7 ± 0.3 | 1.35 | 0.65 ± 0.05 | −71% | 311% | −73% | no effect | 94.1% | 372% | −52% | 93% | SUVmax PC3 PD-L1 overexpressing tumor ([1]; 1.5 (1–2) hours p.i., listed as [64Cu]Cu-3): 3.5 ± 0.2; SUVmax PC3 PD-L1 overexpressing tumor ([1]; 24.5 (24–25) hours p.i., listed as [64Cu]Cu-3): 1.35 ± 0.15
